Measurements as given in PubChem BioAssay (NCI).
Several values for one entry are separate records, joined by “and”; a condition that tells them apart may be missing. Identical values can stand only once.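 Growth conditions: 96-well plates. Treatment: test compound, 48 hours, 5 concentrations. Analysis: linear interpolation between bracketing concentrations; unreached endpoints set to highest concentration. GI50 = concentration required for 50% inhibition of growth. TGI denotes the concentration required for complete inhibition of growth.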

Legend:
Test in all cases: growth of human tumour cells (NCI), 48 h
786-0 renal = tested on: 786-0 renal
CAKI-1 renal = tested on: CAKI-1 renal
K-562 leukemia = tested on: K-562 leukemia
KM12 colon = tested on: KM12 colon
LOX IMVI melanoma = tested on: LOX IMVI melanoma
MOLT-4 leukemia = tested on: MOLT-4 leukemia
SF-268 CNS = tested on: SF-268 CNS
HCT-15 colon = tested on: HCT-15 colon
PC-3 prostate = tested on: PC-3 prostate
SK-OV-3 ovarian = tested on: SK-OV-3 ovarian

| Compound | TGI (786-0 renal) [µM] | TGI (CAKI-1 renal) [µM] | TGI (K-562 leukemia) [µM] | TGI (KM12 colon) | TGI (LOX IMVI melanoma) | TGI (MOLT-4 leukemia) | TGI (SF-268 CNS) [µM] | TGI (HCT-15 colon) [µM] | TGI (PC-3 prostate) [µM] | TGI (SK-OV-3 ovarian) [µM] | GI50 (786-0 renal) | GI50 (CAKI-1 renal) [µM] | GI50 (HCT-15 colon) | GI50 (K-562 leukemia) | GI50 (KM12 colon) | GI50 (LOX IMVI melanoma) | GI50 (MOLT-4 leukemia) | GI50 (PC-3 prostate) | GI50 (SF-268 CNS) | GI50 (SK-OV-3 ovarian) [µM] |
| --- | --- | --- | --- | --- | --- | --- | --- | --- | --- | --- | --- | --- | --- | --- | --- | --- | --- | --- | --- | --- |
| Cc1ccc(/C=C/C(=O)c2ccc(Cl)c(Cl)c2)cc1 | > 100 | > 100 | > 100 | > 100 µM | > 100 µM | > 100 µM | > 100 |  |  |  |  |  |  |  |  |  |  |  |  |  |
| CC1=CCC2CC1C(C(=O)c1c[nH]c3ccccc13)=NC2(C)C (configuration not stated) | > 100 | > 100 | > 100 | > 100 µM | > 100 µM | > 100 µM | > 100 | > 100 | > 100 | > 100 |  |  |  |  |  |  |  |  |  |  |
| CC1=C(C#N)C23C(=O)N(c4ccccc4)C(=O)C2=C(O)C=CC3(O)N1Cc1ccc(Cl)cc1Cl (configuration not stated) | 14.5 | 12.1 | 9.26 | 12 µM | 2.94 µM | 7.55 µM | 16.4 | 19 | 17.1 | 23.2 | 3.99 µM | 2.94 | 5.88 µM | 3.76 µM | 3.27 µM | 1.59 µM | 2.92 µM | 4.68 µM | 3.74 µM | 11.2 |
| Cc1cccc(-c2nnc3s/c(=C\c4ccc(N(C)C)cc4)c(=O)n23)c1 | > 100 | > 100 | > 100 | > 100 µM | > 100 µM | > 100 µM | > 100 |  |  | > 100 |  |  |  |  |  |  |  |  |  |  |
| Nc1ncc(-c2ccc3ncnc(Nc4cccc(Cl)c4)c3c2)cn1 | > 100 |  |  | > 100 µM |  |  | > 100 | > 100 | > 100 |  | 0.339 µM and 1.78 µM | 0.0346 | 0.217 µM and 1.57 µM |  | 4.79 µM |  |  | 1.48 µM | 0.294 µM and 1.95 µM |  |
| CC1(C)Oc2ccc3ccc(=O)oc3c2C(O)C1O (configuration not stated) | > 100 | > 100 | > 100 | > 100 µM | > 100 µM | 53 µM | > 100 | > 100 | > 100 |  |  |  |  |  |  |  |  |  |  |  |
| CC(C)(C)C(=O)N1C(C(=O)O)Cc2ccccc2[C@@H]1Cc1ccccc1 (some centres not stated) | > 100 | > 100 | > 100 | > 100 µM |  | > 100 µM | > 100 | > 100 |  | > 100 |  |  |  |  |  |  |  |  |  |  |
| Cc1ccc(S(=O)(=O)ON2C(=O)c3cccc4cc([N+](=O)[O-])cc(c34)C2=O)cc1 | > 100 | > 100 |  | > 100 µM | > 100 µM | > 100 µM | > 100 | > 100 | > 100 | > 100 |  |  |  |  |  |  |  |  |  |  |
| COc1ccc2c(c1)c(-c1nc(-c3cn(C)c4ccncc34)cs1)cn2C | 3.15 | 3.26 | 4.2 | 3.41 µM |  |  | 4.4 | 3.33 | 4.79 | 5.12 | 1.6 µM | 1.8 | 1.54 µM | 1.9 µM | 1.84 µM |  |  | 1.89 µM | 2.07 µM | 2.52 |
| CN(C)c1ccc(/C=N/NC(N)=S)nc1 | 9.68 |  | > 100 | > 100 µM | > 100 µM | 95.1 µM | 28.2 | > 100 | > 100 | > 100 | 3.33 µM |  | 4.11 µM | 4.54 µM | 3.49 µM | 2.71 µM | 2.92 µM | 3.76 µM | 2.22 µM | 4.5 |
| CCCCCCCCCCCCSC(=S)c1c(C)[nH]n(-c2ccccc2)c1=O | > 50 | > 50 | > 50 |  | > 50 µM | 46.1 µM | > 50 | > 50 |  | > 50 |  |  |  |  |  |  |  |  |  |  |
| NC(=O)CC1OC(=O)Cc2cc3c(c(O)c21)C(=O)c1c(O)cccc1C3=O (configuration not stated) | > 100 | > 100 | > 100 |  | > 100 µM | > 100 µM |  | > 100 | > 100 | > 100 |  |  |  |  |  |  |  |  |  |  |
| Nc1nc(=O)n(C2CCC(CO)O2)cc1F (configuration not stated) | > 100 | > 100 | > 100 | > 100 µM | > 100 µM | > 100 µM | > 100 | > 100 |  | > 100 |  |  |  |  |  |  |  |  |  |  |
| CC(C)(C)OC(=O)C1C(=O)NC(=O)CC1CC(OCc1ccccc1)C(OCc1ccccc1)C(COCc1ccccc1)OCc1ccccc1 (configuration not stated) | > 100 |  | > 100 | > 100 µM and 27.2 µM | > 100 µM and 21.4 µM | > 100 µM and 28.1 µM | > 100 | > 100 | > 100 |  | 47.6 µM and 12.3 µM |  | 60.5 µM and 21.4 µM | 41.5 µM and 11 µM | 39 µM and 5.26 µM | 34.7 µM and 8.43 µM | 14.1 µM and 3.86 µM | 54.7 µM and 8.16 µM | 46.8 µM and 16.1 µM |  |
| O=C(C[n+]1ccccc1)N/N=C(/CCC(=O)N(Cc1ccccc1)Cc1ccccc1)CC(=O)c1ccccc1 | > 100 | > 100 | > 100 | > 100 µM | > 100 µM | > 100 µM | > 100 | > 100 |  |  |  |  |  |  |  |  |  |  |  |  |
| O=S(=O)(N=C1C(Cl)=C(Cl)C(=NS(=O)(=O)c2ccccc2)C(Cl)=C1Cl)c1ccccc1 | 44.1 |  | > 100 | 25.6 µM | 43.1 µM | > 100 µM | 42.2 | > 100 | > 100 | > 100 | 22.7 µM |  | 24.5 µM | 21.4 µM | 12.2 µM | 15.4 µM | 27 µM | 24.3 µM | 16 µM | 43.2 |
| COC(=O)/C=C1/SC(=Nc2cccc(Cl)c2)N(CCc2c[nH]c3ccc(O)cc23)C1=O | 3.4 | 3.67 |  | 3.29 µM | 2.98 µM | 5.1 µM | 4.47 | 3.32 | 3.87 | 5.01 | 1.67 µM | 1.83 | 1.5 µM |  | 1.53 µM | 1.52 µM | 1 µM | 1.74 µM | 1.76 µM | 2.24 |
| CSC(=O)C[C@@]12O[C@@H]([C@@H](C)C3CCC4[C@@H]5C(O)CC6=CC(=O)C=C[C@]6(C)C5CC[C@@]43C)C[C@](C)(O1)C(C)(C)O2 (some centres not stated) | 30.2 | 34.9 | 19.9 | 32.9 µM | 25.1 µM |  | 34.6 | 32 |  | 42.6 |  |  |  |  |  |  |  |  |  |  |
| COc1ccc(NC(=O)Oc2ccc3c(C)cc(=O)oc3c2)c(OC)c1 (tested in a mixture with another compound) | > 100 | > 100 |  | > 100 µM |  | > 100 µM | > 100 | > 100 | > 100 | > 100 |  |  |  |  |  |  |  |  |  |  |
